Reference: ChEMBL document CHEMBL3137667, “[Drug-induced liver injury; fourteenth updated edition of the bibliographic database of liver injuries and related drugs]” (Gastroenterol Clin Biol, 2004)
Where a SMILES comes first, the peptide text is derived from it. Bridges are numbered along the chain shown (N, C = ends). [ ]: non-standard residue; d: D form. The star is where a group is joined. NMePhe(4-NMe2) = CN[C@@H](Cc1ccc(N(C)C)cc1)C(=O)O; Pip(4-oxo) = O=C1CCN[C@H](C(=O)O)C1; Picolinoyl(3-OH) = O=C(c1ncccc1O)*; Phg = N[C@H](C(=O)O)c1ccccc1; dAbu = CC[C@@H](N)C(=O)O

Assays:
[1] = Highest frequency of moderate liver toxicity observed during clinical trials, expressed as a percentage. [column '% BIOL' in source]; conditions: human
[2] = Highest frequency of acute liver toxicity observed during clinical trials, expressed as a percentage. [column '% AIGUE' in source]; conditions: human
[3] = Times to onset, minimal and maximal, observed in the indexed observations. [column 'DELAI' in source]; conditions: human
[4] = human, serum
[5] = human, serum; remark: listed apart in the source
[6] = human
[7] = human; remark: listed apart in the source
[8] = human; remark: listed apart in the source
[9] = human, serum, 4383 h
[10] = human; remark: listed apart in the source
[11] = human; remark: listed apart in the source
[12] = human; remark: listed apart in the source
[13] = human; remark: listed apart in the source
[14] = human; remark: listed apart in the source
[15] = human; remark: listed apart in the source
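Wherever Hepatotoxicity (association with vascular disease) is given: count of indexed literature references reporting vascular liver injury in humans, e.g. peliosis hepatitis, hepatic veno-occlusive disease or Budd-Chiari syndrome.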
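Wherever Hepatotoxicity (benign tumour) is given: value is a count of indexed literature references citing a benign tumour confirmed by histopathology.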
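Wherever Hepatotoxicity (choleostasis) is given: human cholestatic liver injury, shown by histopathology or by peak ALT or AST elevation over alkaline phosphatase ratio below 2, value counts indexed literature reports.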
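Wherever Hepatotoxicity (chronic liver disease) is given: chronic liver injury confirmed by histopathology or persistently raised serum aminotransferase activity beyond 6 months, value given as the count of indexed literature references.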
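Wherever Hepatotoxicity (cirrhosis) is given: value is a count of indexed literature references reporting cirrhosis confirmed by histopathology.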
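Wherever Hepatotoxicity (cytolytic) is given: human cytolytic liver injury, shown by histopathology or by a ratio above 5 of peak ALT or AST elevation to alkaline phosphatase elevation, value counts indexed references.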
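Wherever Hepatotoxicity (granulomatous hepatitis) is given: value is a count of indexed literature references reporting granulomatous liver disease confirmed by histopathology.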
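Wherever Hepatotoxicity (malignant tumour) is given: malignant tumour confirmed by histopathology, value gives the count of indexed literature references reporting it.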
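Wherever Hepatotoxicity (severe hepatitis) is given: human clinical data: severe hepatitis, meaning potentially life-threatening liver failure or clinically observed cases, the value counts how many indexed literature references report it.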
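Wherever Hepatotoxicity (steatosis) is given: steatosis confirmed by histopathology, value is the count of indexed references.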

Row | Structure (SMILES) | Hepatotoxicity (moderate) [1] [%] | Hepatotoxicity (acute) [2] [%] | Hepatotoxicity (time to onset) [3] | Hepatotoxicity (moderate) [4] | Hepatotoxicity (acute) [5] | Hepatotoxicity (cytolytic) [6] | Hepatotoxicity (choleostasis) [7] | Hepatotoxicity (severe hepatitis) [8] | Hepatotoxicity (chronic liver disease) [9] | Hepatotoxicity (cirrhosis) [10] | Hepatotoxicity (granulomatous hepatitis) [11] | Hepatotoxicity (association with vascular disease) [12] | Hepatotoxicity (steatosis) [13] | Hepatotoxicity (malignant tumour) [14] | Hepatotoxicity (benign tumour) [15] | further results
1 | CC[C@H]1NC(=O)[C@@H](NC(=O)c2ncccc2O)[C@@H](C)OC(=O)[C@H](c2ccccc2)NC(=O)[C@@H]2CC(=O)CCN2C(=O)[C@H](Cc2ccc(N(C)C)cc2)N(C)C(=O)[C@@H]2CCCN2C1=O [PRISTINAMYCIN 1A] ({Picolinoyl(3-OH)}-T[dAbu]P[NMePhe(4-NMe2)][Pip(4-oxo)][Phg]; ester 1-C) | 0 | 0 | 1.5 months | 0 | 1 | 1 | 0 | 0 | 0 | 0 | 0 | 0 | 0 | 0 | 0 | 
2 | NC(=O)CCC/N=C(\c1ccc(Cl)cc1)c1cc(F)ccc1O [PROGABIDE] | 30 | 3.4 | 2 weeks - 6 months | 6 | 6 | 4 | 0 | 4 | 0 | 0 | 0 | 0 | 0 | 0 | 0 | 
3 | [H]/N=C(\N/C(=N/[H])Nc1ccc(Cl)cc1)NC(C)C [PROGUANIL] | 16 | 0 | 6 weeks | 1 | 1 | 1 | 0 | 0 | 0 | 0 | 0 | 0 | 0 | 0 | 0 | 
4 | CCC(=O)[C@@]1(C)CC[C@H]2[C@@H]3CCC4=CC(=O)CCC4=C3CC[C@@]21C [PROMEGESTONE] | 0 | 0 | 3 years | 0 | 0 | 0 | 0 | 0 | 0 | 0 | 0 | 0 | 0 | 0 | 1 | 
5 | CC(C)c1cccc(C(C)C)c1O [PROPOFOL] |  |  | 1 day - 4 weeks | 0 | 2 |  |  |  | 0 | 0 |  | 0 | 0 | 0 | 0 | Hepatotoxicity (moderate) ([1]; Liver): 0%; Hepatotoxicity (acute) ([2]; Liver): 0%; Hepatotoxicity (cytolytic) ([6]; Liver): 1; Hepatotoxicity (choleostasis) ([7]; Liver): 1; Hepatotoxicity (severe hepatitis) ([8]; Liver): 0; Hepatotoxicity (granulomatous hepatitis) ([11]; Liver): 0
6 | Cc1c(C(C)C)c(=O)n(-c2ccccc2)n1C [PROPYPHENAZONE] | 0 | 0 | 2 days - 2 years | 0 | 3 | 1 | 0 | 0 | 0 | 0 | 2 | 0 | 0 | 0 | 0 | 
7 | Fc1ccccc1C1=NCC(=S)N(CC(F)(F)F)c2ccc(Cl)cc21 [QUAZEPAM] | 0 | 0 | 4 weeks | 1 | 0 | 0 | 0 | 0 | 0 | 0 | 0 | 0 | 0 | 0 | 0 | 
8 | OCCOCCN1CCN(C2=Nc3ccccc3Sc3ccccc32)CC1 [QUETIAPINE] |  |  | 1 week - 3 weeks | 3 | 1 |  |  |  | 0 | 0 |  | 0 | 0 | 0 | 0 | Hepatotoxicity (moderate) ([1]; Liver): 14.8%; Hepatotoxicity (acute) ([2]; Liver): 1.9%; Hepatotoxicity (cytolytic) ([6]; Liver): 1; Hepatotoxicity (choleostasis) ([7]; Liver): 0; Hepatotoxicity (severe hepatitis) ([8]; Liver): 0; Hepatotoxicity (granulomatous hepatitis) ([11]; Liver): 0
9 | COCCCOc1ccnc(C[S+]([O-])c2nc3ccccc3[nH]2)c1C (stereo not given) [RABEPRAZOLE] | 0 | 0 | 4 weeks | 0 | 1 | 1 | 0 | 1 | 0 | 0 | 0 | 0 | 0 | 0 | 0 | 
10 | CCN1CCC[C@H]1CNC(=O)c1c(O)c(Cl)cc(Cl)c1OC [RACLOPRIDE] | 2.2 | 0 | 1 week - 2 weeks | 1 | 0 | 0 | 0 | 0 | 0 | 0 | 0 | 0 | 0 | 0 | 0 | 
11 | CC(=O)OCC(=O)NCCCOc1cccc(CN2CCCCC2)c1 [ROXATIDINE ACETATE] | 0.4 | 0.5 | 4 weeks | 2 | 1 | 0 | 0 | 0 | 0 | 0 | 0 | 0 | 0 | 0 | 0 | 
12 | CC[C@H]1OC(=O)[C@H](C)[C@@H](O[C@H]2C[C@@](C)(OC)[C@@H](O)[C@H](C)O2)[C@H](C)[C@@H](O[C@@H]2O[C@H](C)C[C@H](N(C)C)[C@H]2O)[C@](C)(O)C[C@@H](C)/C(=N\OCOCCOC)[C@H](C)[C@@H](O)[C@]1(C)O [ROXITHROMYCIN] | 22.6 | 0 | 4 days - 10 months | 38 | 10 | 7 | 6 | 2 | 0 | 0 | 0 | 0 | 0 | 0 | 0 | 
13 | O=C(Oc1ccccc1C(=O)O)c1ccccc1O [SALSALATE] | 15 | 5 | 1 day - 2 weeks | 1 | 2 | 2 | 0 | 0 | 0 | 0 | 0 | 0 | 0 | 0 | 0 | 
14 | FCOC(C(F)(F)F)C(F)(F)F [SEVOFLURANE] | 40 | 0 | 1 day - 11 days | 4 | 6 | 6 | 0 | 2 | 0 | 0 | 0 | 0 | 0 | 0 | 0 | 
